In patent US20200055839A1 (priority 2017, published 2020) one finds EC50 data, which are given here for 27 compounds.

The subject of the test is NL-RLuc virus. Put plainly: Inhibition of HIV replication (NL-RLuc virus, luciferase readout in MT-2 cells). Format: cell-based. Conditions: Human immunodeficiency virus 1, MT2, 120 h, MT-2 cells infected with NL-RLuc virus, 5 days of incubation, 10% FBS, at least 2 experiments. An outline of the steps:
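MT-2 cells infected with NL4-3-derived virus carrying Renilla luciferase in place of part of nef, grown 5 days with serial compound dilutions in RPMI 1640/10% FBS. Virus growth read as luciferase expression. EC50 from median effect equation, at least 2 experiments.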

Regarding `Cc1cccc(Cl)c1C(C)Oc1ccc(-c2cnc(C)c([C@H](OC(C)(C)C)C(=O)O)c2N2CCC(C)(C)CC2)cn1` (stereo partly drawn) [Example 424, (2S)-2-(tert-Butoxy)-2-(6′-(1-(2-chloro-6-methylphenyl)ethoxy)-4-(4,4-dimethylpiperidin-1-yl)-6-methyl-[3, 3′-bipyridin]-5-yl)acetic acid], the EC50 is 16 nM. The value for `Cc1ncc(-c2cnc(OCC(C)(C)C)c(F)c2)c(N2CCC(C)(C)CC2)c1[C@H](OC(C)(C)C)C(=O)O` [Example 375, (2S)-2-(tert-butoxy)-2-[4-(4,4-dimethylpiperidin-1-yl)-6′-(2,2-dimethylpropoxy)-5′-fluoro-6-methyl-[3,3′-bipyridine]-5-yl]acetic acid] was 8 nM. The value for `Cc1nc(N)c(-c2ccc(OCCc3ccc(F)cc3)cc2F)c(N2CCC(C)(C)CC2)c1[C@H](OC(C)(C)C)C(=O)O` [Example 72, (2S)-2-(6-Amino-4-(4,4-dimethylpiperidin-1-yl)-5-(2-fluoro-4-(4-fluorophenethoxy)phenyl)-2-methylpyridin-3-yl)-2-(tert-butoxy)acetic acid] was 2 nM; that for `Cc1ncc(-c2ccc(OCC(C)C)nc2Cl)c(N2CCC(C)(C)CC2)c1[C@H](OC(C)(C)C)C(=O)O` [Example 431, (2S)-2-tert-Butoxy-2-(2′-chloro-4-(4,4-dimethylpiperidin-1-yl)-6′-isobutoxy-6-methyl-3, 3′-bipyridin-5-yl)acetic acid] was 32 nM; that for `Cc1ncc(-c2ccc(OCCc3ccc(F)cc3)nc2)c(N2CCC(C)(C)CC2)c1[C@H](OC(C)(C)C)C(=O)O` [Example 254, (S)-2-(tert-Butoxy)-2-(4-(4,4-dimethylpiperidin-1-yl)-6′-(4-fluorophenethoxy)-6-methyl-[3,3′-bipyridin]-5-yl)acetic acid] was 0.6 nM. The same measure for `CCCCCCCOc1ccc(-c2cnc(C)c([C@H](OC(C)(C)C)C(=O)O)c2N2CCC(C)(C)CC2)nc1` [Example 326, (2S)-2-(tert-butoxy)-2-[4′-(4,4-dimethylpiperidin-1-yl)-5-(heptyloxy)-6′-methyl-[2,3′-bipyridine]-5′-yl]acetic acid]: 3 nM; for `Cc1ncc(-c2cnc(OC[C@@H](C)c3ccccc3)c(F)c2)c(N2CCC(C)(C)CC2)c1[C@H](OC(C)(C)C)C(=O)O` [Example 388, (2S)-2-(tert-butoxy)-2-[4-(4,4-dimethylpiperidin-1-yl)-5′-fluoro-6-methyl-6′-[(2S)-2-phenylpropoxy]-[3,3′-bipyridine]-5-yl]acetic acid]: 3 nM. As to `Cc1ncc(-c2cc(C(F)(F)F)c(OCCc3ccc(F)cc3)cn2)c(N2CCC(C)(C)CC2)c1[C@H](OC(C)(C)C)C(=O)O` [Example 244, (S)-2-(tert-Butoxy)-2-(4′-(4,4-dimethylpiperidin-1-yl)-5-(4-fluorophenethoxy)-6′-methyl-4-(trifluoromethyl)-[2, 3′-bipyridin]-5′-yl)acetic acid], the concentration for a half-maximal effect (EC50) turned out to be 3 nM. Compound `CCCCNc1ccc(-c2cnc(C)c([C@H](OC(C)(C)C)C(=O)O)c2N2CCC(C)(C)CC2)cn1` [Example 437, (S)-2-tert-Butoxy-2-(6′-(butylamino)-4-(4,4-dimethylpiperidin-1-yl)-6-methyl-3, 3′-bipyridin-5-yl)acetic acid] returned an EC50 of 9 nM. The value for `COc1cccc(CCOc2ncc(-c3cnc(C)c([C@H](OC(C)(C)C)C(=O)O)c3N3CCC(C)(C)CC3)cc2F)c1` [Example 383, (2S)-2-(tert-butoxy)-2-[4-(4,4-dimethylpiperidin-1-yl)-5′-fluoro-6′-[2-(3-methoxyphenyl)ethoxy]-6-methyl-[3,3′-bipyridine]-5-yl]acetic acid] was 3 nM. Turning to `Cc1ncc(-c2ccc(F)nc2OCC(C)C)c(N2CCC(C)(C)CC2)c1[C@H](OC(C)(C)C)C(=O)O` [Example 435, (2S)-2-tert-Butoxy-2-(4-(4,4-dimethylpiperidin-1-yl)-6′-fluoro-2′-isobutoxy-6-methyl-3, 3′-bipyridin-5-yl)acetic acid], the EC50 was determined as 501 nM. The compound `Cc1nc(NCCCN2CCN(C)CC2)c(-c2ccc(OCCc3ccc(F)cc3)cc2)c(N2CCC(C)(C)CC2)c1[C@H](OC(C)(C)C)C(=O)O` [Example 52, (S)-2-(tert-Butoxy)-2-(4-(4,4-dimethylpiperidin-1-yl)-5-(4-(4-fluorophenethoxy)phenyl)-2-methyl-6-((3-(4-methylpiperazin-1-yl)propyl)amino)pyridin-3-yl)acetic acid] displayed an EC50 of 1 nM. The value for `Cc1ccc(-c2cnc(C)c([C@H](OC(C)(C)C)C(=O)O)c2N2CCC(C)(C)CC2)c(F)c1F` [Example 159, (2S)-2-(tert-Butoxy)-2-[5-(2,3-difluoro-4-methylphenyl)-4-(4,4-dimethylpiperidin-1-yl)-2-methylpyridin-3-yl]acetic acid] was 2 nM. `COc1ccc(-c2cnc(C)c([C@H](OC(C)(C)C)C(=O)O)c2N2CCC(C)(C)CC2)nc1` [Example 229, (S)-2-(tert-Butoxy)-2-(4′-(4,4-dimethylpiperidin-1-yl)-5-methoxy-6′-methyl-[2, 3′-bipyridin]-5′-yl)acetic acid] registered a half-maximal effective concentration (EC50) of 13 nM.

In turn, `Cc1ncc(-c2ccc(OCCC(C)(C)C)cn2)c(N2CCC(C)(C)CC2)c1[C@H](OC(C)(C)C)C(=O)O` [Example 316, (2S)-2-(tert-butoxy)-2-[5-(3,3-dimethylbutoxy)-4′-(4,4-dimethylpiperidin-1-yl)-6′-methyl-[2,3′-bipyridine]-5′-yl]acetic acid] yielded an EC50 of 2 nM. `COc1ccc(-c2cnc(C)c([C@H](OC(C)(C)C)C(=O)O)c2N2CCC(C)(C)CC2)c(F)c1` [Example 181, (2S)-2-(tert-Butoxy)-2-[4-(4,4-dimethylpiperidin-1-yl)-5-(2-fluoro-4-methoxyphenyl)-2-methylpyridin-3-yl]acetic acid] had an EC50 of 6 nM. The value for `CN(Cc1ccc(-c2cnc(Cl)c([C@H](OC(C)(C)C)C(=O)O)c2N2CCC(C)(C)CC2)cc1)c1ncnc2c1oc1ccccc12` [Example 220, (S)-2-(5-(4-((Benzofuro[3,2-d]pyrimidin-4-yl(methyl)amino)methyl)phenyl)-2-chloro-4-(4,4-dimethylpiperidin-1-yl)pyridin-3-yl)-2-(tert-butoxy)acetic acid] was 2 nM. The same measure for `Cc1ccccc1CCOc1ncc(-c2cnc(C)c([C@H](OC(C)(C)C)C(=O)O)c2N2CCC(C)(C)CC2)cc1F` [Example 385, (2S)-2-(tert-butoxy)-2-[4-(4,4-dimethylpiperidin-1-yl)-5′-fluoro-6-methyl-6′-[2-(2-methylphenyl)ethoxy]-[3,3′-bipyridine]-5-yl]acetic acid]: 3 nM; for `Cc1ncc(-c2ccc(OCC(C)C)c(C(F)(F)F)n2)c(N2CCC(C)(C)CC2)c1[C@H](OC(C)(C)C)C(=O)O` [Example 275, (S)-2-(tert-Butoxy)-2-(4′-(4,4-dimethylpiperidin-1-yl)-5-isobutoxy-6′-methyl-6-(trifluoromethyl)-[2, 3′-bipyridin]-5′-yl)acetic acid]: 8 nM; for `Cc1nc(-c2cnc(C)c([C@H](OC(C)(C)C)C(=O)O)c2N2CCC(C)(C)CC2)ccc1OCCc1ccc(F)cc1` [Example 232, (S)-2-(tert-Butoxy)-2-(4′-(4,4-dimethylpiperidin-1-yl)-5-(4-fluorophenethoxy)-6, 6′-dimethyl-[2, 3′-bipyridin]-5′-yl)acetic acid]: 6 nM. As for `Cc1ncc(-c2ncccn2)c(N2CCC(C)(C)CC2)c1[C@H](OC(C)(C)C)C(=O)O` [Example 187, (2S)-2-(tert-Butoxy)-2-[4-(4,4-dimethylpiperidin-1-yl)-2-methyl-5-(pyrimidin-2-yl)pyridin-3-yl]acetic acid], a half-maximal response (EC50) required 107 nM.

The compound `Cc1cccc(CCOc2ccc(-c3cnc(C)c([C@H](OC(C)(C)C)C(=O)O)c3N3CCC(C)(C)CC3)nc2)c1` [Example 290, (2S)-2-(tert-butoxy)-2-[4′-(4,4-dimethylpiperidin-1-yl)-6′-methyl-5-[2-(3-methylphenyl)ethoxy]-[2,3′-bipyridine]-5′-yl]acetic acid] displayed an EC50 of 1 nM.

`Cc1nc(-c2cccnc2)c(-c2ccc(OCCc3ccc(F)cc3)cc2)c(N2CCC(C)(C)CC2)c1[C@H](OC(C)(C)C)C(=O)O` [Example 41, (S)-2-(tert-Butoxy)-2-(4-(4,4-dimethylpiperidin-1-yl)-3-(4-(4-fluorophenethoxy)phenyl)-6-methyl-[2, 3′-bipyridin]-5-yl)acetic acid]: the EC50 was determined as 4 nM. The same measure for `Cc1ncc(-c2cnc(O[C@H](C)Cc3ccccc3)c(F)c2)c(N2CCC(C)(C)CC2)c1[C@H](OC(C)(C)C)C(=O)O` [Example 380, (2S)-2-(tert-butoxy)-2-[4-(4,4-dimethylpiperidin-1-yl)-5′-fluoro-6-methyl-6′-{[(2R)-1-phenylpropan-2-yl]oxy}-[3,3′-bipyridine]-5-yl]acetic acid]: 2 nM; for `Cc1nc(C(=O)N[C@H]2CC[C@H](C)CC2)c(-c2ccc(OCCc3ccc(F)cc3)cc2)c(N2CCC(C)(C)CC2)c1[C@H](OC(C)(C)C)C(=O)O` [Example 12, (S)-2-(tert-Butoxy)-2-(4-(4,4-dimethylpiperidin-1-yl)-5-(4-(4-fluorophenethoxy)phenyl)-2-methyl-6-(((1 r, 4S)-4-methylcyclohexyl)carbamoyl)pyridin-3-yl)acetic acid]: 4 nM; for `Cc1nc(NCc2cccnc2)c(-c2ccc(OCCc3ccc(F)cc3)cc2)c(N2CCC(C)(C)CC2)c1[C@H](OC(C)(C)C)C(=O)O` [Example 92, (S)-2-(tert-Butoxy)-2-(4-(4,4-dimethylpiperidin-1-yl)-5-(4-(4-fluorophenethoxy)phenyl)-2-methyl-6-((pyridin-3-ylmethyl)amino)pyridin-3-yl)acetic acid]: 4 nM. The same measure for `COc1cccc(-c2cnc(C)c([C@H](OC(C)(C)C)C(=O)O)c2N2CCC(C)(C)CC2)c1Cl` [Example 161, (2S)-2-(tert-Butoxy)-2-[5-(2-chloro-3-methoxyphenyl)-4-(4,4-dimethylpiperidin-1-yl)-2-methylpyridin-3-yl]acetic acid]: 9 nM.
